Source: patent US11679107B2 (Eisai R&D Management Co., Ltd., priority 2018, dated 2023)
Like-named read-outs stand apart in the source and are kept apart here.

Tests used:
[1] = system: Panc 05.04 cells (SF3b K700E mutant); assay: Cell proliferation and viability, CellTiter-Glo, 72 hours; format: cell-based; settings: for GI50: geometric mean
Summary of the method: (§1)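 Cells grown in RPMI-1640 with 10% FBS (Panc line with added insulin and FBS to 15%) were exposed to an 11-point half-log dilution series, typically 10 μM-100 pM, at 0.1% final DMSO. After incubation at 37° C, 5% CO2, ATP content was measured by luminescence and normalized to a time-zero plate and DMSO wells.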

[2] = system: NCI-H1568 cells (high MCL1); assay: as above; format: cell-based; settings: for GI50: geometric mean
Summary of the method: as §1

SF3b complexes = target: T1, SF3b complexes (Homo sapiens, UniProt O75533+Q7RTV0); assay: Scintillation proximity assay (SPA) with [3H]-labelled pladienolide probe; format: binding; settings: SF3B1 (WT); geometric mean; read-out: SPA-ATS GMean IC50 (nM) SF3B1 (WT)
T1 construct: endogenous in cells; host or cells: Nuclear extracts; A HeLa S3 extract preparation is described for the in vitro splicing assay
Summary of the method: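 SF3b complexes captured from nuclear extracts on anti-SF3B1 antibody SPA beads; test compounds pre-incubated 30 min before 2.5 nM [3H]-pladienolide probe added, then 30 min incubation. Bound probe read by scintillation; values from non-linear regression of concentration–response curves.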

[3] = system: Ad2 variant pre-mRNAs spliced in HeLa S3 nuclear extracts; assay: In vitro splicing assay (IVS), RT-qPCR of spliced product; format: biochemical; settings: for IC50: geometric mean; for Ratio Ad2.1/2.2: ratio of IVS IC50 Ad2.1 to Ad2.2
Summary of the method: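 Ad2 variant pre-mRNA (2 ng) with FTZΔi control RNA in HeLa S3 nuclear extract (8 μg) was pre-incubated with compound or DMSO for 15 min at 30 °C. Splicing ran 90 min at 30 °C after adding 0.5 mM ATP, creatine phosphate and MgCl2. Spliced product was quantified by TaqMan RT-qPCR, normalized to DMSO, and curve-fitted.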

[4] = PANC0504.1 cells, 72 h, −100% cidal, 0% static, 100% maximal growth
[5] = Panc 05.04, read-out: CTGlo-ATS GMean GI50 (nM) 72 h PANC0504.1, PANC0504.1 cells, 72 h
[6] = NCI-H1568, read-out: CTGlo-ATS GMean GI50 (nM) 72 h NCIH1568.1, NCIH1568.1 cells, 72 h
[7] = NCIH1568.1 cells, 72 h, −100% cidal, 0% static, 100% maximal growth
[8] = Ad2.1 pre-mRNA substrate, read-out: qPCR-IVS-ATS GMean IC50 (nM) Ad2.1
[9] = Ad2.2 pre-mRNA substrate, read-out: qPCR-IVS-ATS GMean IC50 (nM) Ad2.2
[10] = 72 h, PANC0504.1, -100% = cidal, 0% = static, 100% = uninhibited growth
[11] = Panc 05.04, read-out: CTGlo-ATS GMean GI50 (nM) 72 h PANC0504.1, 72 h, PANC0504.1
[12] = 72 h, NCIH1568.1, -100% = cidal, 0% = static, 100% = uninhibited growth
[13] = NCI-H1568, read-out: CTGlo-ATS GMean GI50 (nM) 72 h NCIH1568.1, 72 h, NCIH1568.1
[14] = Panc 05.04, 72 h, read-out: CTGlo-ATS GMean GI50 (nM) 72 h PANC0504.1, 72 h, PANC0504.1
[15] = NCI-H1568, 72 h, read-out: CTGlo-ATS GMean GI50 (nM) 72 h NCIH1568.1, 72 h, NCIH1568.1

Compound	CTGlo-ATS Mean MinResponse % 72 h PANC0504.1 [1, 4]	GI50 [1, 5]	GI50 [2, 6]	CTGlo-ATS Mean MinResponse % 72 h NCIH1568.1 [2, 7]	IC50 (SF3b complexes)	IC50 [3, 8]	IC50 [3, 9]	CTGlo-ATS Mean MinResponse % 72 h PANC0504.1 [1, 10]	GI50 [1, 11]	CTGlo-ATS Mean MinResponse % 72 h NCIH1568.1 [2, 12]	GI50 [2, 13]	Ratio Ad2.1/2.2 [3]	GI50 [1, 14]	GI50 [2, 15]	GI50 ([1]; Panc 05.04, 72 h, read-out: CTGlo-ATS GMean GI50 (nM) 72 h PANC0504.1, PANC0504.1 cells, 72 h)	GI50 ([2]; NCI-H1568, 72 h, read-out: CTGlo-ATS GMean GI50 (nM) 72 h NCIH1568.1, NCIH1568.1 cells, 72 h)
C/C(=C\c1ccc(S(=O)(=O)NC2CCCC2)cc1F)[C@H]1OC(=O)C[C@H](O)CC[C@H](C)[C@@H](OC(=O)N2CCN(C)CC2)/C=C/[C@@H]1C [Compound 57]	−71.380%	49.7 nM	41.3 nM	−47.783%	9.16 nM	> 25000 nM	228 nM	–	–	–	–	–	–	–	–	–
C/C(=C\c1ccnc(N2CCOCC2)c1)[C@H]1OC(=O)C[C@H](O)CC[C@H](C)[C@@H](OC(=O)N2CCN(C)CC2)/C=C/[C@@H]1C [Compound 6]	−88.664%	15.7 nM	29.1 nM	−17.149%	8.85 nM	> 25000 nM	75.3 nM	–	–	–	–	–	–	–	–	–
C/C(=C\c1cccc(S(=O)(=O)N2CCC2)c1)[C@H]1OC(=O)C[C@H](O)CC[C@H](C)[C@@H](OC(=O)N2CCN(C)CC2)/C=C/[C@@H]1C [Compound 198, [(2S,3S,4E,6R,7S,10R)-2-[(E)-1-[3-(azetidin-1-ylsulfonyl)phenyl]prop-1-en-2-yl]-10-hydroxy-3,7-dimethyl-12-oxo-1-oxacyclododec-4-en-6-yl] 4-methylpiperazine-1-carboxylate]	–	–	–	–	7.82 nM	2390 nM	43.2 nM	−96.773%	21.7 nM	−56.095%	15.5 nM	55.224	–	–	–	–
C/C(=C\c1cc(F)c2cn(C3CCOCC3)nc2c1)[C@H]1OC(=O)C[C@H](O)CC[C@H](C)[C@@H](OC(=O)N2CCN(C)CC2)/C=C/[C@@H]1C [Compound 117]	−95.049%	50.2 nM	79.8 nM	−55.709%	9.76 nM	> 25000 nM	69.6 nM	–	–	–	–	–	–	–	–	–
C/C(=C\c1cc(Cl)cc(Cl)c1)[C@H]1OC(=O)C[C@H](O)CC[C@H](C)[C@@H](OC(=O)N2CCN(C)CC2)/C=C/[C@@H]1C [Compound 48]	−89.415%	95.2 nM	121 nM	−38.837%	11.3 nM	> 25000 nM	188 nM	–	–	–	–	–	–	–	–	–
C/C(=C\c1cc(F)c2nn(CC3CC3)nc2c1)[C@H]1OC(=O)C[C@H](O)CC[C@H](C)[C@@H](OC(=O)N2CCN(C)CC2)/C=C/[C@@H]1C [Compound 138]	−85.916%	120 nM	70.3 nM	−80.330%	8.7 nM	> 25000 nM	57.5 nM	–	–	–	–	–	–	–	–	–
C/C(=C\c1cc(F)cc(N2CCOCC2)c1)[C@H]1OC(=O)C[C@H](O)CC[C@H](C)[C@@H](OC(=O)N(C)C2CCN(C)CC2)/C=C/[C@@H]1C [Compound 22]	−84.195%	11.6 nM	12.8 nM	−69.453%	5.76 nM	876 nM	38.8 nM	–	–	–	–	–	–	–	–	–
C/C(=C\c1cccc(COC(=O)N(C)C)c1)[C@H]1OC(=O)C[C@H](O)CC[C@H](C)[C@@H](OC(=O)N2CCN(C)CC2)/C=C/[C@@H]1C [Compound 258, [(2S,3S,4E,6R,7S,10R)-2-[(E)-1-[3-(dimethylcarbamoyloxymethyl)phenyl]prop-1-en-2-yl]-10-hydroxy-3,7-dimethyl-12-oxo-1-oxacyclododec-4-en-6-yl] 4-methylpiperazine-1-carboxylate]	–	–	–	–	11.7 nM	> 25000 nM	73.8 nM	−65.918%	–	−12.669%	–	338.606	28.7 nM	29.8 nM	–	–
CC(=O)N1CCC(n2nnc3c(F)cc(/C=C(\C)[C@H]4OC(=O)C[C@H](O)CC[C@H](C)[C@@H](OC(=O)N5CCNCC5)/C=C/[C@@H]4C)cc32)CC1 [Compound 253, [(2S,3S,4E,6R,7S,10R)-2-[(E)-1-[3-(1-acetylpiperidin-4-yl)-7-fluorobenzotriazol-5-yl]prop-1-en-2-yl]-10-hydroxy-3,7-dimethyl-12-oxo-1-oxacyclododec-4-en-6-yl] piperazine-1-carboxylate]	–	–	–	–	1.92 nM	10 nM	8.59 nM	−80.763%	–	−84.782%	–	1.167	12.9 nM	2.42 nM	–	–
C/C(=C\c1cc(F)c2cnn(CC#N)c2c1)[C@H]1OC(=O)C[C@H](O)CC[C@H](C)[C@@H](OC(=O)N2CCN(C)CC2)/C=C/[C@@H]1C [Compound 131]	−94.995%	27.1 nM	19.2 nM	−65.430%	4.04 nM	357 nM	45.8 nM	–	–	–	–	–	–	–	–	–
C/C(=C\c1cc(F)cc(N2CC[C@@H](F)C2)c1)[C@H]1OC(=O)C[C@H](O)CC[C@H](C)[C@@H](OC(=O)N2CCN(C)CC2)/C=C/[C@@H]1C [Compound 14]	−91.489%	–	–	−65.049%	2.72 nM	584 nM	54.7 nM	–	–	–	–	–	–	–	19.6 nM	14.1 nM
C/C(=C\c1cc(F)cc(N2CCN(CCO)CC2)c1)[C@H]1OC(=O)C[C@H](O)CC[C@H](C)[C@@H](OC(=O)N2CCN(C)CC2)/C=C/[C@@H]1C [Compound 12]	−73.954%	7.55 nM	3.64 nM	−92.161%	4.88 nM	14.7 nM	13.5 nM	–	–	–	–	–	–	–	–	–
COCC(=O)N1CCN(c2cc(F)cc(/C=C(\C)[C@H]3OC(=O)C[C@H](O)CC[C@H](C)[C@@H](OC(=O)N4CCN(C)CC4)/C=C/[C@@H]3C)c2)CC1 [Compound 108]	−82.618%	3.31 nM	2.47 nM	−79.118%	2.03 nM	16.8 nM	14.3 nM	–	–	–	–	–	–	–	–	–
C/C(=C\c1cccc(S(=O)(=O)N2CCC(F)(F)CC2)c1)[C@H]1OC(=O)C[C@H](O)CC[C@H](C)[C@@H](OC(=O)N2CCN(C)CC2)/C=C/[C@@H]1C [Compound 202, [(2S,3S,4E,6R,7S,10R)-2-[(E)-1-[3-(4,4-difluoropiperidin-1-yl)sulfonylphenyl]prop-1-en-2-yl]-10-hydroxy-3,7-dimethyl-12-oxo-1-oxacyclododec-4-en-6-yl] 4-methylpiperazine-1-carboxylate]	–	–	–	–	14.1 nM	4470 nM	25.2 nM	−93.824%	24.7 nM	−59.083%	29.4 nM	177.387	–	–	–	–
C/C(=C\c1cc(F)cc(N2CCOCC2)c1)[C@H]1OC(=O)C[C@H](O)CC[C@H](C)[C@@H](OC(=O)N(C)CCC#N)/C=C/[C@@H]1C [Compound 245, [(2S,3S,4E,6R,7S,10R)-2-[(E)-1-(3-fluoro-5-morpholin-4-ylphenyl)prop-1-en-2-yl]-10-hydroxy-3,7-dimethyl-12-oxo-1-oxacyclododec-4-en-6-yl] N-(2-cyanoethyl)-N-methylcarbamate]	–	–	–	–	17.4 nM	8880 nM	64.8 nM	−95.548%	–	−46.475%	–	136.897	113 nM	62.3 nM	–	–
